Results published in article PMC11351458, “Bioaffinity Ultrafiltration Combined with HPLC-ESI-qTOF-MS/MS for Screening Potential Bioactive Components from the Stems of Dendrobium fimbriatum and In Silico Analysis” (Antioxidants, 2024).
Like-named read-outs stand apart in the source and are kept apart here. Marks after values point to notes of the source that are not given here.

Assays:
[1] = tested on: NO production in RAW 264.7 cells; assay: Nitric oxide (NO) inhibition assay; format: cell-based, murine; conditions: Mus musculus
Procedure: In this experiment, the RAW 264.7 macrophage cell line was used. The cells were stored at −196 °C in liquid nitrogen. After thawing, the cells were cultured in DMEM at 37 °C and 5% CO2 supplemented with 10% FBS, […] L-glutamine, 1 mM sodium pyruvate, 100 μg/mL streptomycin, and 100 U/mL penicillin.
NO inhibition assay was slightly modified from the reported method. The day before the experiment, RAW 264.7 cells were seeded into 96-well plates with 2 × 10^4 cells per well. The cells were pretreated with the sample solution, and then incubated at 37 °C for 1 h. After incubation, the cells were treated with 100 ng/mL of LPS to induce an inflammatory response. After incubation at 37 °C for 20 h, 50 μL of the supernatant was transferred from each well to another 96-well plate and mixed with an equal volume of Griess reagent. Finally, the absorbance was acquired at 550 nm after 20 min of incubation.

[2] = target: T1, acetylcholinesterase (AChE) (Electrophorus electricus, UniProt O42275); assay: Bioaffinity ultrafiltration assay with acetylcholinesterase; format: binding; conditions: components of EtOAc extract; EF = (A1 − A2)/A0 × 100%
T1 construct: purchased Sigma-Aldrich (St. Louis, MO, USA)
Procedure: (§1) The bioaffinity ultrafiltration assay was conducted using a previously described procedure. […] The reaction was conducted at 37 °C for 30 min, then centrifuged using a 14,000× g ultracentrifuge filter at 30 °C for 15 min. The filtrate was removed and 200 μL of Tris-HCl buffer was added to the ultracentrifuge filter and centrifuged at 14,000× g for 15 min at 30 °C. The previous step was repeated 3 times and the filtrate was removed. Then, 200 μL of methanol was added to the ultracentrifuge filter and centrifuged at 14,000× g for 15 min at 30 °C. The previous step was repeated 3 times and the filtrate was collected. The filtrate was concentrated and then dissolved in 50 μL MeOH for HPLC analysis. In addition, the processing of iNOS-ligand complexes was conducted following previously reported methods, while inducible nitric oxide synthase bioaffinity ultrafiltration assays were performed, as detailed above.
(§2) The binding affinity of compounds and enzymes using enrichment factor (EF) was assessed, and was counted as follows: A1, A2, and A0 represent the peak areas of picked compounds acquired from the extracts incubated with activated, inactivated, and no acetylcholinesterase, respectively. EF (%) = (A1 − A2)/A0 × 100%

[3] = target: T2, inducible nitric oxide synthase (iNOS) (Mus musculus, UniProt P29477); assay: Bioaffinity ultrafiltration assay with inducible nitric oxide synthase; format: binding; conditions: components of EtOAc extract; EF = (A1 − A2)/A0 × 100%
T2 construct: purchased Sigma-Aldrich (St. Louis, MO, USA)
Procedure: as §1, §2

[4] = Superoxide radical scavenging activity; conditions: 50% free radical scavenging; for EC50: isolated components, read-out: SC50 Superoxide
Procedure: A superoxide radical scavenging assay was performed based on previously reported methods. The superoxide radical was generated in 16 mM Tris-HCl buffer (pH 8.0) containing 50 μL of NBT (300 μM), 50 μL of PMS (120 μM), and 50 μL of different concentrations of the test sample. The reaction was initiated by adding 50 μL of NADH (468 μM) solution to the mixture. After incubating at room temperature for 5 min, the activity of samples was determined by the decrease in absorbance measured at 560 nm against the sample concentration.

[5] = DPPH radical scavenging activity; conditions: 50% free radical scavenging; for EC50: isolated components, read-out: SC50 DPPH
Procedure: The DPPH radical scavenging effect was measured based on the reported method. BHT was applied as a positive control. DPPH solution was prepared diluted by EtOH to reach the final concentration of 400 µM. Different concentrations (400, 200, 100, 50, and 25 µg/mL) of extracts or compounds (100 µL) were mixed with DPPH solution (100 µL) and incubated for 30 min at room temperature and in darkness, and the absorbance of the mixture was measured at 520 nm.

[6] = ABTS cation radical scavenging activity; conditions: 50% free radical scavenging; for EC50: isolated components, read-out: SC50 ABTS
Procedure: The ABTS cation radical scavenging effect was measured, as previously described by. […] The working solution was diluted by EtOH to reach the absorbance of 0.70 ± 0.02 at 740 nm for further experiments. Different concentrations (400, 200, 100, 50, and 25 µg/mL) of extracts or compounds (10 µL) were mixed with the working solution (190 μL). The mixture was incubated at room temperature for 6 min, and the antioxidant activity of the mixture was determined by the decrease in absorbance measured at 740 nm.

[7] = Ferric reducing antioxidant power (FRAP); conditions: mM Trolox equivalents per g
Procedure: FRAP was measured by the method reported in the previous literature. The working solution was mixed with acetate buffer (pH 3.6), ferric chloride solution (20 mM), and TPTZ solution (10 mM TPTZ in 40 mM HCl) at a proportion of 10:1:1, respectively, and freshly prepared before being used. A total of 900 μL of the working solution was warmed to 37 °C and then mixed with 100 μL of the diluted sample, blank or standard, in a microcentrifuge tube. The tubes were vortexed in a dry bath at 37 °C for 40 min. The absorbance was measured at 593 nm. The standard curve was linear between 0 and 100 mM Trolox. Results were expressed as mM TE/g dry weight. Additional dilution was needed if the FRAP value measured was over the linear range of the standard curve.

[8] = target: α-glucosidase; assay: α-Glucosidase inhibitory activity assay; format: biochemical; conditions: isolated compounds
Procedure: To test the anti-α-glucosidase effect of each solvent extract and each component, a previously described method was used. […] The α-glucosidase solution was diluted to 1 U/mL with 0.1 M sodium phosphate buffer (pH 6.8). Various concentrations of extract or compound (100 µL) and α-glucosidase solution (20 µL) were mixed. Subsequently, 0.53 mM p-NPG (380 µL) was added and incubated at 37 °C for 40 min. The reaction was stopped by adding 500 μL of 0.1 M Na2CO3 solution, and the absorbance was detected at 405 nm.
α-glucosidase inhibition (%) was counted as follows (Asample and Acontrol represent the absorbance of the tested sample and control, respectively):α-glucosidase inhibition (%) = (Acontrol − Asample)/Acontrol × 100%

[9] = target: T1, acetylcholinesterase (AChE); assay: biochemical
Procedure: The acetylcholinesterase inhibitory assay was carried out applying a method described in reference. Briefly, 0.1 M sodium phosphate buffer (pH 8.0, 140 μL), DTNB (10 μL), sample (20 μL), and AChE solution (15 μL) were added to a 96-well microplate and incubated at room temperature for 10 min. Finally, the absorbance was detected with a spectrophotometer at 405 nm.
The acetylcholinesterase inhibitory effect was counted as follows (Asample and Acontrol represent the absorbance of the tested sample and control, respectively):Acetylcholinesterase inhibitory activity (%) = (Acontrol − Asample)/Acontrol × 100%

[10] = tested on: LPS-induced iNOS expression in RAW 264.7 murine macrophages; assay: Western blotting of LPS-induced iNOS expression; format: cell-based; conditions: 50 μM; LPS-induced RAW 264.7; Western blot
Procedure: Western blotting was conducted with the previous procedure. Cells were treated with different concentrations of compounds and 100 ng/mL of LPS for a day. After rinsing cells with cold PBS, proteins were harvested with radioimmunoprecipitation assay buffer (RIPA buffer) and stored at −20 °C for succeeding procedure. Proteins were separated on a 12.5% SDS-polyacrylamide gel and then electrophoretically transferred to a PVDF membrane. The membrane was soaked in 2% bovine serum albumin (BSA) blocking buffer for 2 h, then washed 2–3 times with TBST. Proteins were treated by particular primary antibodies and immersed overnight. The following day, PVDF membranes were washed with TBST to remove residual primary antibodies, and then immersed with secondary antibodies for 2 h. Then, enhanced chemiluminescence solution was coated on the membrane and visualized using an ImageQuant LAS 4000 Mini Biomolecular Imager (GE Healthcare, Marlborough, MA, USA). Finally, we quantified band density by ImageJ software 1.53a (BioTechniques, New York, NY, USA).

[11] = RAW264.7, isolated components, LPS-treated RAW 264.7 cells, read-out: NO Inhibition IC50
[12] = isolated compounds, read-out: IC50 AChE (converted)

T1 sequence (O42275 24-633): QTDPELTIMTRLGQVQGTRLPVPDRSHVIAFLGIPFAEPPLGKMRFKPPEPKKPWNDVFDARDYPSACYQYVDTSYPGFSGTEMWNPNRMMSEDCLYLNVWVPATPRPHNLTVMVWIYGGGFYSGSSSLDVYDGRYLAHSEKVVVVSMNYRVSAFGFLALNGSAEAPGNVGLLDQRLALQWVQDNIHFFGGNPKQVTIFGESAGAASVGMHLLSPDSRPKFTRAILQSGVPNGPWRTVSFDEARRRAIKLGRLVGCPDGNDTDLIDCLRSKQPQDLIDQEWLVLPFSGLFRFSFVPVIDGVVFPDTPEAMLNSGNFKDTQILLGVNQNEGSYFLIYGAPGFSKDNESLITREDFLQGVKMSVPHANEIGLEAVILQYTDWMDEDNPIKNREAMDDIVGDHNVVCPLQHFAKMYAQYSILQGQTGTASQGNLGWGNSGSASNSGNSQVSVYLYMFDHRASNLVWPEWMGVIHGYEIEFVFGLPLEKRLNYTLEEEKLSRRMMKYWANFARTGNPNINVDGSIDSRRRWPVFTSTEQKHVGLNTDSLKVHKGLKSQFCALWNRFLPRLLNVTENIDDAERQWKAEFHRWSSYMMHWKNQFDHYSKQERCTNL

Row | SMILES | AChE EF (enrichment factor) [2] [%] | iNOS EF (enrichment factor) [3] [%] | EC50 [4] [µM] | EC50 [5] [µM] | EC50 [6] [µM] | TE FRAP ([7]; isolated components) | other results
1 | O=c1c(O)c(-c2ccc(O)c(O)c2)oc2cc(O)cc(O)c12 [Quercetin, quercetin, reference compound] | – | – | – | – | – | – | IC50 [1, 11]: 23.1 ± 1.43 µM; IC50 ([1]; RAW264.7, solvent extracts, LPS-treated RAW 264.7 cells, read-out: NO Inhibition IC50): 6.98 ± 0.43 µg/mL
2 | Oc1ccc(CCc2cc(O)cc(O)c2)cc1 [Dihydroresveratrol] | 0.08 | 0.62 | – | – | – | – | –
3 | O=c1cc(-c2ccc(O)c(O)c2)oc2cc(O[C@@H]3O[C@H](CO)[C@@H](O)[C@H](O)[C@H]3O)cc(O)c12 [Cynaroside, cynaroside, reference compound] | – | – | 50.6 ± 2.62 | – | – | – | SC50 Superoxide ([4]; solvent extracts): 112.76 ± 5.84 µg/mL
4 | COc1cc(O)cc(CCc2cccc(O)c2)c1 [Batatasin III (3), batatasin III] | 31.87 | 27.18 | > 400 | > 400 | 30.1 ± 1.7 | 559.67 ± 51.49 ^c mM/g | TE FRAP ([7]; isolated components, listed as batatasin III): 559.67 ± 51.49 mM/g; IC50 [8]: 723 ± 53.5 µM; IC50 [9, 12]: 258 ± 18.5 µM; IC50 [1, 11]: 51.3 ± 5.51 µM
5 | COc1cc(CCc2cc(OC)c(O)c(OC)c2)ccc1O [Dendrophenol (4), dendrophenol] | 59.48 | 65.11 | > 400 | 11.6 ± 0.77 | 7.64 ± 0.63 | 1686.53 ± 16.61 ^c mM/g | TE FRAP ([7]; isolated components, listed as dendrophenol): 1686.53 ± 16.61 mM/g; IC50 [8]: 608 ± 48.2 µM; IC50 [9, 12]: 165 ± 13.2 µM; IC50 [1, 11]: 14.3 ± 3.17 µM; inhibition of iNOS expression [10]: 89.82%
6 | COc1ccc(CCc2cc(OC)c(OC)c(OC)c2)cc1O [Erianin] | 0.23 | 1.72 | – | – | – | – | –
7 | O=C(/C=C/c1ccc(O)c(O)c1)O[C@@H]1C[C@](O)(C(=O)O)C[C@@H](O)[C@H]1O [Chlorogenic acid, chlorogenic acid, reference compound] | – | – | – | – | – | – | IC50 [9, 12]: 236 ± 15.9 µM; IC50 ([9]; solvent extracts, read-out: IC50 AChE (converted)): 214 µM
8 | Oc1ccc2c(c1)CCc1cc(O)cc(O)c1-2 [2,4,7-Trihydroxy-9,10-dihydrophenanthrene] | 1.32 | 0.91 | – | – | – | – | –
9 | COc1c(O)cc2ccc3cc(O)ccc3c2c1OC [Nudol] | 29.56 | 24.39 | – | – | – | – | –
10 | Cc1cc(C(C)(C)C)c(O)c(C(C)(C)C)c1 [BHT, butylated hydroxytoluene, reference compound] | – | – | – | 90.8 ± 5.65 | 53.7 ± 1.48 | 4355.95 ± 99.23 mM/g | SC50 DPPH ([5]; solvent extracts): 36.64 ± 2.22 µg/mL; SC50 ABTS ([6]; solvent extracts): 46.83 ± 0.44 µg/mL; TE FRAP ([7]; solvent extracts): 4296.98 ± 48.40 mM/g
11 | COc1cc(O)cc2ccc3cccc(O)c3c12 [Moscatin (2), moscatin] | 66.31 | 88.99 | > 400 | 26.7 ± 1.63 | 10.3 ± 1.92 | 1396.40 ± 57.03 ^c mM/g | TE FRAP ([7]; isolated components, listed as moscatin): 1396.40 ± 57.03 mM/g; IC50 [8]: 478 ± 33.4 µM; IC50 [9]: 162 ± 16.5 µM; IC50 ([1]; RAW264.7, read-out: NO Inhibition IC50): 23.5 ± 3.16 µM; inhibition of iNOS expression [10]: 69.76%
12 | COc1ccc2c(c1)CCc1cc(O)cc(OC)c1-2 [Coelonin] | 2.00 | 5.09 | – | – | – | – | –
13 | COc1cc(CCc2cc(O)cc(O)c2)ccc1O [Tristin] | 5.83 | 0.95 | – | – | – | – | –
14 | COc1cc(O)cc(CCc2ccc(O)c(OC)c2)c1 [Gigantol (1), gigantol] | 54.60 | 44.84 | > 400 | 35.2 ± 1.34 | 12.2 ± 0.54 | 1483.20 ± 63.49 ^c mM/g | TE FRAP ([7]; isolated components, listed as gigantol): 1483.20 ± 63.49 mM/g; IC50 [8]: 470 ± 28.5 µM; IC50 [9, 12]: 176 ± 19.1 µM; IC50 [1, 11]: 63.7 ± 11.4 µM
